Test results: PMC6290777, “Inhalation of the prodrug PI3K inhibitor CL27c improves lung function in asthma and fibrosis” (Nature Communications, 2018)

How the values were obtained:
Format in all cases: in vivo, BALB/c mice
[1] = tested on: glucocorticoid-resistant neutrophilic asthma; assay: Glucocorticoid-resistant asthma model; details: CL27c 2 mg/ml aerosol; dexamethasone 5 mg/kg i.p.
Description: (§1) BALF was performed to obtain leukocytes from alveolar space. The trachea was exposed and a 1.7-mm-outside-diameter polyethylene catheter was inserted. BAL was performed by washing the lungs three-times with three different 500 µl aliquots of PBS. BALF samples were centrifuged at 600 × g for 10 min at 4 °C on a histology glass slide and stained with Diff Quick (MICROPTIC, #DQ-ST). The number of leukocytes and differential counts of different population were obtained evaluating the percentage leukocyte populations over the total cell number.
(§2) Mice were anesthetized with a subcutaneous injection of ketamine and xylazine (130 mg/Kg ketamine and 8.5 mg/Kg xylazine) to maintain spontaneous breathing under anesthesia. Mice were tracheostomized, placed in a body plethysmograph and connected to a computer-controlled ventilator (Forced Pulmonary Maneuver System®, Buxco Research Systems©, Wilmington, North Carolina USA). First, an average breathing frequency of 160 breaths/min was imposed to the anesthetized animal by a pressure-controlled ventilation until a regular breathing pattern and complete expiration at each breathing cycle was obtained. Under mechanical respiration, respiratory flow and airway pressure were measured to compute dynamic compliance (Cdyn) and lung resistance (RL). To measure the TLC, pressure–volume maneuvers were performed, where lungs were inflated to a standard pressure of +30 cm H2O and then let slowly exhale until a negative pressure of −30 cm H2O was reached. To measure the FEV Fast-Flow Volume maneuvers was performed. In this maneuver, lungs were first inflated to +30 cm H2O (TLC) and, immediately, a negative pressure (−30 cm H2O) was applied in order to enforce expiration. To evaluate AHR, the same mice used in previous maneuvers (basal condition) received Metacholine, 1 mg/Kg (Acetyl-β-methylcholine chloride, A-2251, Sigma-Aldrich St.Louis, MO,USA) i.v., and 20 sec after, a new set of maneuvers were conducted to assess RL changes. Suboptimal maneuvers were rejected and for each test in every single mouse at least three acceptable maneuvers were conducted to obtain a reliable mean for all numeric parameters.
(§3) IL-5, IL-13, eotaxin, TGF-β, KC, IL-17A, and MCP-1 levels in the BALF and anti-OVA IgE levels in serum were measured by ELISA technique using commercial DuoSet kits R&D Systems according to the instructions of the manufacturer. Results were expressed in levels of cytokines per ml of […] (pg/ml) or arbitrary units (A.U.).
On day 1 BALB/c mice received systemic immunization by subcutaneous injection of 20 µg of chicken egg ovalbumin (OVA grade V, >98% pure; Sigma, St Louis, MO) in saline, emulsified in 75 µL CFA (Complete Freund’s Adjuvant; Sigma-Aldrich) (Figure 5)[52]. On days 25–28 mice were exposed to aerosolised ovalbumin (1% in saline) for 20 min per day. Mice were exposed during 30 min to aerosolized CL27c (2 mg/ml dissolved in 0.5 % tylaxopol/saline solution) or vehicle (0.5% tyloxapol/saline solution), or to systemic treatment with dexamethasone (5 mg/kg i.p. injection). Untreated control groups included mice challenged with PBS alone. On day 29, mice were sacrificed, and samples were collected for further analysis.
The left lung was removed and fixed in 4% neutral phosphate-buffered formalin (pH 7.4)[10]. The tissues were dehydrated gradually in ethanol, embedded in paraffin, cut into 4 µm sections, stained with H&E, Gomori’s trichrome and periodic acid schiff (PAS), and examined under light microscopy by a pathologist in a double blinded manner. Images of lung sections were captured with a digital camera (Optronics DEI-470) connected to a microscope (Olympus IX70) with a magnification of ×40 or ×100. Inflammation was scored according to modification of existing protocols[53] and to the histopathology criteria reported in Supplementary Table 4.

[2] = tested on: OVA-induced acute allergic asthma; assay: OVA-induced acute allergic asthma model; details: systemic treatment, i.p.
Description: On Days 1 and 14, BALB/c mice (6–8 weeks) received an intraperitoneal injection (i.p.) of a solution containing 0.5 mg/ml OVA and 5 mg/ml Alum (described in Fig. 2). Untreated controls were injected with a solution of 5 mg/ml Alum. […] Untreated control groups included mice challenged with PBS alone. On day 29, mice were sacrificed, and samples were collected for further analysis.
as §1, §3
Immunohistochemistry for CD18 was performed using the streptavidin-biotin-peroxidase method in formalin-fixed, paraffin-embedded tissue sections (5 µm thick) mounted on poly-L-lysine-coated microscope slides. Lung cross-sections were deparaffinized and rehydrated through xylene and graded alcohols. After antigen retrieval, endogenous peroxidase was blocked (15 min) with 3% (v/v) hydrogen peroxide and washed in phosphate-buffered saline (PBS). Sections were incubated overnight (4 °C) with primary rabbit anti-CD18 antibody (Acris Antibodies GmbH, Germany, Cat. Number B0842-1) diluted 1:400 in PBS plus bovine serum albumin (PBS-BSA) or rabbit anti/PAkt (S473) diluted 1:100 in PBS/BSA. The slides were then incubated with biotinylated goat anti-rabbit antibody (Dako Agilent Pathology Solution, USA) diluted 1:1000 in PBS/BSA. After washing, the slides were incubated with avidin-biotin-horseradish peroxidase conjugate (Dako Agilent Pathology Solution, USA) for 30 min, according to the manufacturer’s instructions. CD18 and PAkt-positive cells were visualized with the chromogen 3,3′-diaminobenzidine (DAKO liquid DAB + substrate chromogen system, CA, USA). Slides were counterstained with Harry’s hematoxylin, dehydrated in a graded alcohol series, cleared in xylene, and cover slipped.
Lung, liver, and heart samples were collected for western blot detection of akt phosphorilation levels. Protein samples were resolved by 10% SDS-PAGE and transferred on to PVDF (Immobilon™-P) membranes. The membranes were blocked with 5% BSA in 1x TBS with 0.3% Tween 20 for 30 min at […]. Then, the membranes were incubated overnight at 4 °C with primary antibodies (phosphorylated Akt serine 473, 1:1000, Cell Signaling Technology, Cat. Number 4060) and 1 h with HRP-conjugated secondary antibody (1:10000). The blots were visualized in ECL solution for 1 min and images were captured on Luminescent Image Analyser (ChemiDoc Imaging Systems, Bio-Rad Laboratories, USA). For loading control, the blots were striped and reassessed with pan Akt (1:1000) antibody. For quantification, specific phosphorylation was calculated as the ratio of signals for phosphorylated Akt to the signal of total Akt detected. Values of unstimulated samples were set to 1.0. Uncropped scans of the most important blots are provided as a supplementary figure in the Supplementary Information (Supplementary Fig. 15).

[3] = tested on: OVA-induced chronic allergic asthma; assay: OVA-induced chronic allergic asthma model; details: CL27c 2 mg/ml aerosol or dexamethasone 5 mg/kg
Description: as §1, §2
On day 1, BALB/c mice received systemic immunization by subcutaneous injection of 10 µg of chicken egg ovalbumin (OVA grade V, >98% pure; Sigma, St Louis, MO) diluted in 2 mg/mL Al(OH)3 followed by a booster injection at the day 14 (described in fig. 3). Nasal challenges were performed starting at the day 28, by inhalational exposure to aerosolised ovalbumin (1% ovalbumin in saline 0,9%) for 20 min per day, in alternated days during 16 days (day 28, 30, 32, 34, 36, 38, 40, 42 and 44). At the same time, mice received daily treatment from day 28 to 44 with CL27c (2 mg/ml dissolved in 0.5 % tylaxopol/saline solution, aerosolized for 30′) or vehicle (0.5% tyloxapol/saline solution, aerosolized for 30′), or dexamethasone (5 mg/kg i.p. injection). Untreated control groups included mice challenged with PBS alone. On day 45, mice were sacrificed, and samples were collected for further analysis.
as §3
The left lung was removed and fixed in 4% neutral phosphate-buffered formalin (pH 7.4)[10]. The tissues were dehydrated gradually in ethanol, embedded in paraffin, cut into 4 µm sections, stained with H&E, Gomori’s trichrome and periodic acid schiff (PAS), and examined under light microscopy by a pathologist in a double blinded manner. Images of lung sections were captured with a digital camera (Optronics DEI-470) connected to a microscope (Olympus IX70) with a magnification of ×40 or ×100. […]

SMILES: C[C@@H]1C[C@H]2[C@@H]3CCC4=CC(=O)C=C[C@]4(C)[C@@]3(F)[C@@H](O)C[C@]2(C)[C@@]1(O)C(=O)CO [Dexamethasone, reference compound]
- histopathology: overall score of lung damage / tissue inflammation [1]: failed to provide an effect
- BALF accumulation of inflammatory cells [2]: significantly reduced this infiltration
- accumulation of inflammatory cells in peribronchial and perivascular spaces [3]: significantly decreased
- lung function: lung resistance (RL) and dynamic compliance (Cdyn) [3]: normalize lung function
- peribronchial fibrosis (fibrotic airway remodeling) [3]: significantly reduced
